Experimental data reported in patent publication US8852569B2, “Prevention and treatment of itch with cysteine protease inhibition” (The General Hospital Corporation, priority 2008, dated 2014).

Experiments:
[1] = system: PAR2; assay: PAR activation by cytoplasmic calcium release in transfected HeLa cells (Fura-2 ratiometric imaging), PAR2; type: cell-based, human; conditions: FIG. 3C; cathepsin S 2 μM, E64 10 μM, fura-2 single cell imaging
Experimental: (§1) The responses to PAR 2 and 4 were blocked by the protease inhibitor E64 (10 μM) as a control). Other controls included vector alone and vector encoding the PAR1 receptor. Cathepsin S was added as indicated. The averages from at least three separate experiments were then combined +/−SD.
(§2) Salmon sperm (SS) DNA is used as control. The averages from at least three separate experiments were then combined +/−SD.
(§3) PAR activation observed by cytoplasmic calcium release—The four human PAR cDNAs were obtained from commercial sources and cloned into the pcDNA3.1(−) vector (INVITROGEN™ Inc.). HeLa cells were transfected with 10 μg of vector cDNA using Lipofectamine 2000 (INVITROGEN™ Inc.) and cultured for two days in 96-well glass bottom plates at 30,000 cells/well. Cells were loaded with Fura-2 as follows. The medium was aspirated and replaced with 100 μl of complete DMEM containing 2 μM Fura-2 (INVITROGEN™ Inc.) and kept at room temperature in the dark for 1 hr. The medium was again aspirated and each well received 90 μl of HEPES buffered saline (20 mM HEPES, 115 mM NaCl, 5.4 mM KCl, 2 mM CaCl2, 0.8 mM MgCl2, 13.8 mM glucose, pH 7.4). Plates were observed using a Zeiss Axiovert 200M microscope equipped with a filter wheel for monitoring excitation at 340 and 380 nm. Axiovision software, version 4.6 was used to analyze ratiometric calcium imaging of the cells. […]

[2] = target: T1, human cathepsin K (Homo sapiens, UniProt P43235); assay: Chromogenic substrate assay, inhibition of cathepsin K by E64; type: biochemical; conditions: FIG. 1; protease 0.84 μM, E64 2 μM
T1 construct: made in house; host or cells: E. coli
T1 sequence (P43235 115-329): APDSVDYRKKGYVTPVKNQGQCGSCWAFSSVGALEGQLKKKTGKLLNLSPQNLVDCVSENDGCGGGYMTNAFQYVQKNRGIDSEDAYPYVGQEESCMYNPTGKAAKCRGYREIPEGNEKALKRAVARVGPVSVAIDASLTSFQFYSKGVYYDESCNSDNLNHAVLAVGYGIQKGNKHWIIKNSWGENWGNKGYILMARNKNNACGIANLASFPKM
Experimental: (§4) The concentrations of all the three proteases are at 0.84 μM and that of E64, a non-selective irreversible inhibitor of cysteine proteases, is at 2 μM […].
(§5) Papain served as a positive control cysteine protease. The cathepsin S and K were further evaluated for their capacity to activate PAR receptors as noted below.

[3] = target: T2, human cathepsin S (Homo sapiens, UniProt P25774); assay: Chromogenic substrate assay, inhibition of cathepsin S by E64; type: biochemical; conditions: FIG. 1; protease 0.84 μM, E64 2 μM
T2 construct: made in house; host or cells: E. coli
T2 sequence (P25774 115-331): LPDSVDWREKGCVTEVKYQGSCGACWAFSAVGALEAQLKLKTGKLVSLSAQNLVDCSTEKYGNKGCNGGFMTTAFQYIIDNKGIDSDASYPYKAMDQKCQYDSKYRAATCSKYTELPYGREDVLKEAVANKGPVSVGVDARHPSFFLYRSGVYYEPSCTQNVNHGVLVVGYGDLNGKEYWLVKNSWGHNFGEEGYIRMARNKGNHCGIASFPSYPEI
Experimental: as §4, §5

[4] = system: PAR4; assay: PAR activation by cytoplasmic calcium release in transfected HeLa cells (Fura-2 ratiometric imaging), PAR4; type: cell-based, human; conditions: FIG. 3C; cathepsin S 2 μM, E64 10 μM, fura-2 single cell imaging
Experimental: as §1, §2, §3

## CC(C)C[C@H](NC(=O)[C@H]1O[C@@H]1C(=O)O)C(=O)NCCCCN=C(N)N (relative stereo) [E64, trans-epoxysuccinyl-L-leucylamide-(4-guanidino) butane, reference compound]
[1]
  cathepsin S induced PAR2 response in presence of E64: blocked
[2]
  protease activity of cathepsin K (cleavage of Z-Phe-Arg-pNA) in presence of E64: eliminated
[3]
  protease activity of cathepsin S (cleavage of Z-Phe-Arg-pNA) in presence of E64: eliminated
[4]
  cathepsin S induced PAR4 response in presence of E64: blocked
